For series [1], the system named is P3-P4 FVB mouse cochlear explants. The following applies: FVB, mouse, 24 h. Here is the method:
Mouse cochlear explants are widely recognized as an alternative to in vivo cochlear models and pragmatic for focused drug screening ([37]). […] Medium-alone, drug-alone, and cisplatin-alone treatments were used as controls.
P3-P4 FVB mouse cochleae were dissected and maintained in culture on filter inserts in six-well plates with 1 ml of growth medium DMEM (12430-054,Gibco Life Technologies), with 1% FBS (16000-044, Gibco Life Technologies), B-27 supplement (200 μl/500 ml; 17504-44, Gibco Life Technologies), N-2 supplement (100 μl/500 ml; 17502-048, Gibco Life Technologies), and ampicillin (50 μg/ml; A5354-10ML, Sigma-Aldrich) both inside and outside the filter (Millicell, PICM03050, Millipore). […] Cochleae were imaged by confocal microscopy, two 160-μm regions from middle turns were photographed, and the number of intact HCs was counted. Two to five independent cochleae were tested for each experimental condition.

Series [2] concerns IMR-32. Nature of the series: Tumor Cell Titer-Glo viability assay, IMR-32. Type of series: cell-based, human. The note with it: IMR-32, 35 μM + 15 μM cisplatin, 48 hours. The text has this: (§1) In clinical settings, cisplatin is used to treat several tumor types, including neuroblastoma and lung carcinoma. […] Medium-alone–, cisplatin-alone–, and dabrafenib-alone–treated cells were used as controls, and viability was reported as percent survival compared to medium alone (Fig. 4E).
(§2) Three human neuroblastoma cell lines IMR-32, SH-SY5Y, and, SK-N-AS, as well as three human lung carcinoma cell lines SHP-77 small cell, H1155 non–small cell, and A549 non–small cell, were used to determine the compounds’ effect on cisplatin’s tumor-killing efficacy ([77]–[83]). Cell lines were purchased from the American Type Culture Collection (ATCC), and cell culture was conducted according to ATCC specifications. Neuroblastoma cell lines IMR-32 and SH-SY5Y are maintained in Dulbecco’s modified Eagle’s medium (DMEM) 1× with glucose (4.5 g/liter), L-glutamine, and sodium pyruvate (10-013-CV, Corning) with 10% fetal bovine serum (FBS) (35011132, Corning) and ampicillin (50 μg/ml; A5354-10ML, Sigma-Aldrich) added. The SK-N-AS cell line is maintained in DMEM 1× with D-glucose (4.5 g/liter), L-glutamine, and 25 mM Hepes (12430-054, Gibco) with 10% FBS, 0.1 mM nonessential amino acids, and ampicillin (50 μg/ml) added. A549 cells are maintained in F-12K medium with L-glutamine (30-2004, ATCC) with 10% FBS and ampicillin (50 μg/ml) added. […]
(In general: Cellular ATP, detected with luciferase, serves as a proxy for viable cell number.)

In series [3] the test system is SHP-77 small cell. Nature of the series: Tumor Cell Titer-Glo viability assay, SHP-77. Type of series: cell-based, human.
Excerpt: as §1, §2

The subject of series [4] is P42 FVB mice. Put plainly: Noise-induced hearing loss in adult mice (ABR, DPOAE, Ctbp2 puncta, pERK). Type of series: in vivo, mouse. Here is the method:
Noise injury cannot always be predicted, and pretreatment is often not an option.
Compounds were dissolved in a mixture of 10% DMSO, 5% Tween 80 (P1754, Sigma-Aldrich), 40% PEG-E-300 (91462-1KG, Sigma-Aldrich), and 45% 0.9% saline.
ABR in mice was measured for left ears as described previously with minor modifications ([13], [34]). In brief, ABR waveforms were recorded in a sound booth (Industrial Acoustic Company) by using subdermal needles positioned in the skull, below the pinna, and at the base of the tail, and the responses were fed into a low-impedance Medusa digital biological amplifier system (RA4L; TDT; 20-dB gain). At each frequency, the stimulus intensity was reduced from 90 to 0 dB in 10-dB steps to determine the threshold decibel SPL when the electrical response was just above the noise floor. ABR waveforms were averaged in response to 500 tone bursts. The recorded signals were filtered by a band-pass filter from 300 Hz to 3 kHz. Pretreatment ABR recordings of adult FVB mice (aged 6 weeks) were acquired 1 week before all treatments, and posttreatment ABR measurements were recorded 21 days after cisplatin treatment or 14 days after noise exposure. ABR threshold was determined by the presence of any of three or more of the five waveform peaks. […] All thresholds and shifts were determined independently by two experimenters for each mouse. Individual ABR wave 1 amplitudes were measured as the difference between the positive peak and the following negative trough.
Mice were placed in individual cages in a custom-made acrylic chamber. The sound stimulus was produced by System RZ6 (TDT) equipment and amplified using a 75-A power amplifier (Crown). Sound was delivered to the acrylic chamber via a speaker horn (JBL). The SPL was calibrated with a 1/4-inch free-field microphone (PCB). Before experimental noise exposure, four quadrants of the cage inside the chamber were sampled with the 1/4-inch microphone to ensure that the SPL varied by <0.5 dB across the measured positions. Adult mice were then exposed to 2 hours of octave band noise (8 to 16 kHz) at 100 dB.
Organs of Corti were costained with anti-Ctbp2 and anti–myosin VI antibodies. Confocal imaging was performed using a Zeiss 700 scanning confocal microscope with a 63× objective. Visualization and projections were performed using ZEN 2009 or ZEN 2012 software (Zeiss). Ctbp2 puncta were visualized and counted on the reconstructed three-dimensional images by using the ZEN 2009 or ZEN 2012 three-dimensional construct function as previously reported ([54]). […] Images were acquired around 16-kHz cochlear regions, and each image included 12 to 18 IHCs that were quantified as total number of Ctbp2 puncta divided by total number of IHCs per image.

Series [5] concerns BRAF, MEK, and ERK phosphorylation. Put plainly: Western blot of cisplatin-induced MAPK phosphorylation in HEI-OC1 cells. The following applies: 14, 35, or 75 μM, 1 hour pretreatment, 50 μM cisplatin 1 hour. (In general: A western blot detects proteins with antibodies after separation by electrophoresis.)
Experimental: Whole lysates of HEI-OC1 cells were prepared in lysis buffer (9803, Cell Signaling Technology) after adding protease (cOmplete ULTRA Tablets 05892791001) and phosphatase (PhosSTOP 04906845001) inhibitors (Roche). The lysates were centrifuged for 10 min at 15,000g at 4°C, and the supernatants were collected. Protein concentrations in protein solutions were determined with the BCA protein assay kit (23235, Thermo Fisher Scientific). Forty micrograms of total cell lysate was loaded on 4 to 20% SDS–polyacrylamide gel electrophoresis gels. The following antibodies were used for immunoblot analysis: anti-BRAF (14814S), anti-pBRAF (Ser^445, 2696S), anti-ERK1/2 (4695), anti-pERK1/2 (Thr^202/Tyr^204, 9101S), anti-MEK1/2 (9122S), and anti-pMEK1/2 (Ser^217/221, 41G9S) were obtained from Cell Signaling Technologies and anti–β-actin (C4; SC-47778) was purchased from Santa Cruz. The antibodies were used at dilutions ranging from 1:500 to 1:1000. Anti-mouse (P0447) and anti-rabbit (P0448) secondary antibodies were purchased from Dako Laboratories and diluted 1:5000. National Institutes of Health (NIH) ImageJ software was used to quantify the band intensities and recorded as a ratio to loading control β-actin. Each Western blot series (n) was carried out using cell lysates from separate experiments. Blot intensities were quantified using NIH ImageJ software.

`CC(C)(C)c1nc(-c2cccc(NS(=O)(=O)c3c(F)cccc3F)c2F)c(-c2ccnc(N)n2)s1` [dabrafenib]: in series [1], the “LD50 (median lethal dose)” value was more than 60 µM. Moreover, the “effect on tumor cell death when combined with cisplatin” value in series [2] was “increased tumor cell death”; in series [3] (SHP-77, 35 μM + 15 μM cisplatin, 48 hours) it was “increased tumor cell death”. Further, in series [3] (SHP-77, 35 μM, no cisplatin), the “cell survival, drug treatment alone” value is given as “significant inhibition”. In addition, the “loss of Ctbp2 puncta per IHC at 16-kHz region” value in series [4] (100 mg/kg pretreatment) was “partially rescued”. For the same compound, the “effect on noise-reduced 16-kHz ABR wave 1 amplitude” value in series [4] (100 mg/kg pretreatment, 80- and 90-dB SPL) is given as “significantly mitigated”. Besides, the “noise-induced ERK phosphorylation in SCs” value in series [4] (pretreatment, 3 hours after noise) is reported as “reduced ERK phosphorylation”. Further, the “effect on cisplatin-induced BRAF, MEK, and ERK phosphorylation” value in series [5] is listed as “mitigated these changes in a dose-dependent manner”.

The values are drawn from publication PMC7821884, “BRAF inhibition protects against hearing loss in mice” (Science Advances, 2020).
